Test results from patent US9834542B2, “LXR modulators” (BRISTOL-MYERS SQUIBB COMPANY, priority 2013, dated 2017).

Target: T1, LXRβ (Homo sapiens, UniProt P55055)
T1 construct: Co-transfection expression plasmids, comprising full-length LXRα (pCMX-h LXRα[…] or LXRβ (pCMX-hLXRβ)); expressed in transfected cells; host or cells: CV-1 African Green Monkey Kidney Cells
T1 sequence (P55055 1-460): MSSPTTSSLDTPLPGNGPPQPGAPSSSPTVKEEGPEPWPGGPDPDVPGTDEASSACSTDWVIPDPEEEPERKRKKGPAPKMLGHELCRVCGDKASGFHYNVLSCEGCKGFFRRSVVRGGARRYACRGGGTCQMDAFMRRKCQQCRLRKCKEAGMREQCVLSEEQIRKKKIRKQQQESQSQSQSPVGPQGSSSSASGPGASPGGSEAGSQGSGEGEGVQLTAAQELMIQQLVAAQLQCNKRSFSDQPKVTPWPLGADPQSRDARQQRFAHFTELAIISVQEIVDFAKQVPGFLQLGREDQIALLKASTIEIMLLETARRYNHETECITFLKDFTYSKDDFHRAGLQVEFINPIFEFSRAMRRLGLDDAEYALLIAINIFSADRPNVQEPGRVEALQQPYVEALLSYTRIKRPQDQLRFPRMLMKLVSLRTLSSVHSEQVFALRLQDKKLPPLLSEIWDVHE
T1 sequence (P19793 1-462 partner): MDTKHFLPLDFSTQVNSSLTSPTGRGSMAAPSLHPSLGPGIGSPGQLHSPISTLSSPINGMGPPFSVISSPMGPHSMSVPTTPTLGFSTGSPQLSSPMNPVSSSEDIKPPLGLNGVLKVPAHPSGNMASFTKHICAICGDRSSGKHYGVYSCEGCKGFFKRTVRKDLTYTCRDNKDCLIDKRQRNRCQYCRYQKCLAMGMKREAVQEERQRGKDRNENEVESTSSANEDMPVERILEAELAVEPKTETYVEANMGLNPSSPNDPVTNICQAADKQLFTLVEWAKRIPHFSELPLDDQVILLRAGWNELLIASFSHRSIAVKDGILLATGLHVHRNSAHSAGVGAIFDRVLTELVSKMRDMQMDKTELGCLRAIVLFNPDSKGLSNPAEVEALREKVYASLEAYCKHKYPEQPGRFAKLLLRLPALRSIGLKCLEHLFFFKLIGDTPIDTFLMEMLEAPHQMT
Experiment: Co-transfection assay (LXRE luciferase reporter), LXRβ
Format: cell-based
Conditions: for EC50: CV-1 cells transfected with pCMX-hLXRβ and LXREx1-Tk-Luciferase, 20 hours incubation; for Emax: LXRβ co-transfection, relative to high control 1-(2,4-difluorobenzyl)-2-oxo-6-(4-phenoxyphenyl)-4-(trifluoromethyl)-1,2-dihydropyridine-3-carbonitrile, read-out: % Efficacy
Procedure, shortened: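 CV-1 cells transiently co-transfected with full-length human LXRβ (or LXRα), LXREx1-Tk-luciferase reporter and β-galactosidase control; compound added (10 μM final in single-point, 11-point ½-log curves, ≤0.5% DMSO) for 20 h at 37 °C. Luciferase read; EC50 from four-parameter fit, efficacy relative to reference agonist high control.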

Row | Compound | EC50 | Emax
1 | Cc1ccc(-c2cnnn2-c2cc(-c3cccc(S(C)(=O)=O)c3)ccc2-n2cc(C(F)F)nc2C)cc1 [Example 168, 1-{4-[4-(difluoromethyl)-2-methyl-1H-imidazol-1-yl]-3′-(methylsulfonyl)biphenyl-3-yl}-5-(4-methylphenyl)-1H-1,2,3-triazole] | 945 nM | 81%
2 | Cc1nc(-c2cc(-c3cccc(S(C)(=O)=O)c3)ccc2-n2cc(C(F)(F)F)nc2C)c(-c2cccc(Cl)n2)o1 [Example 441, 5-(6-chloropyridin-2-yl)-2-methyl-4-(4-(2-methyl-4-(trifluoromethyl)-1H-imidazol-1-yl)-3′-(methylsulfonyl)biphenyl-3-yl)oxazole] | 1310 nM | 38%
3 | Cc1nc(C(F)(F)F)cn1-c1ccc(-c2cccc(S(C)(=O)=O)c2)cc1-n1nncc1C(O)(c1ccc(Cl)cc1)C(F)(F)F (stereo not drawn) [Example 11, 1-(4-chlorophenyl)-2,2,2-trifluoro-1-(1-{3′-(methylsulfonyl)-4-[2-methyl-4-(trifluoromethyl)-1H-imidazol-1-yl]biphenyl-3-yl}-1H-1,2,3-triazol-5-yl) ethanol] | 332 nM | 79%
4 | Cc1nc(C(F)(F)F)cn1-c1c(Cl)cc(-c2cc(F)c(CO)c(S(C)(=O)=O)c2)cc1-n1nncc1-c1ccc(OC(F)(F)F)cc1 [Example 196, [3′-chloro-3-fluoro-5-(methylsulfonyl)-4′-[2-methyl-4-(trifluoromethyl)-1H-imidazol-1-yl]-5′-(5-{4-[(trifluoromethyl)oxy]phenyl}-1H-1,2,3-triazol-1-yl)biphenyl-4-yl]methanol] | 241 nM | 68%
5 | Cc1nc(C(F)(F)F)cn1-c1ccc(-c2cccc(S(C)(=O)=O)c2)cc1-n1nncc1CCc1ccc(Cl)cc1 [Example 129, 5-[2-(4-chlorophenyl)ethyl]-1-{3′-(methylsulfonyl)-4-[2-methyl-4-(trifluoromethyl)-1H-imidazol-1-yl]biphenyl-3-yl}-1H-1,2,3-triazole] | 1500 nM | 65%
6 | Cc1nc(C(F)(F)F)c(Cl)n1-c1ccc(-c2cc(Cl)c(CO)c(S(C)(=O)=O)c2)cc1-n1nncc1-c1ccc(OC(F)(F)F)cc1 [Example 60, {3-chloro-4′-[5-chloro-2-methyl-4-(trifluoromethyl)-1H-imidazol-1-yl]-5-(methylsulfonyl)-3′-(5-{4-[(trifluoromethyl)oxy]phenyl}-1H-1,2,3-triazol-1-yl)biphenyl-4-yl}methanol] | 245 nM | 121%
7 | Cc1nc(-c2cc(-c3cc(F)c(CO)c(S(C)(=O)=O)c3)ccc2-n2cc(C(F)(F)F)nc2C)c(-c2ccc(OC(F)F)c(F)c2)o1 [Example 377] | 48 nM | 77%
8 | Cc1nc(C(F)F)cn1-c1ccc(-c2cccc(S(C)(=O)=O)c2)cc1-n1nncc1-c1ccc(Cl)cc1Cl [Example 163, 5-(2,4-dichlorophenyl)-1-{4-[4-(difluoromethyl)-2-methyl-1H-imidazol-1-yl]-3′-(methylsulfonyl)biphenyl-3-yl}-1H-1,2,3-triazole] | 1600 nM | 61%
9 | COC(=O)c1ccc(-c2cnnn2-c2cc(-c3cccc(S(C)(=O)=O)c3)ccc2-n2cc(C(F)(F)F)nc2C)cc1 [Example 82, methyl 4-(1-{3′-(methylsulfonyl)-4-[2-methyl-4-(trifluoromethyl)-1H-imidazol-1-yl]biphenyl-3-yl}-1H-1,2,3-triazol-5-yl)benzoate] | 260 nM | 89%
10 | Cc1nc(C(F)(F)F)cn1-c1ccc(-c2cccc(S(C)(=O)=O)c2)cc1-c1ocnc1-c1ccc(OC(F)(F)F)cc1 [Example 361, 5-{3′-(methylsulfonyl)-4-[2-methyl-4-(trifluoromethyl)-1H-imidazol-1-yl]biphenyl-3-yl}-4-{4-[(trifluoromethyl)oxy]phenyl}-1,3-oxazole] | 183 nM | 89%
11 | Cc1nc(-c2cc(-c3cc(F)c(CO)c(S(C)(=O)=O)c3)ccc2-n2cc(C(F)(F)F)nc2C)c(-c2ccc3c(c2)CC(C)(C)O3)o1 [Example 420, (3′-(5-(2,2-dimethyl-2,3-dihydrobenzofuran-5-yl)-2-methyloxazol-4-yl)-3-fluoro-4′-(2-methyl-4-(trifluoromethyl)-1H-imidazol-1-yl)-5-(methylsulfonyl)biphenyl-4-yl)methanol] | 82 nM | 86%
12 | Cc1nc(C(F)(F)F)cn1-c1ccc(-c2cc(F)c(CO)c(S(C)(=O)=O)c2)cc1-n1nncc1C(C)c1ccc(Cl)cc1 (stereo not drawn) [Example 109, (3′-{5-[1-(4-chlorophenyl)ethyl]-1H-1,2,3-triazol-1-yl}-3-fluoro-5-(methylsulfonyl)-4′-[2-methyl-4-(trifluoromethyl)-1H-imidazol-1-yl]biphenyl-4-yl)methanol] | 111 nM | 53%
13 | Cc1nc(C(F)(F)F)cn1-c1c(F)cc(-c2cc(F)c(CO)c(S(C)(=O)=O)c2)cc1-n1nncc1-c1ccc(OC(F)(F)F)cc1 [Example 202, [3,3′-difluoro-5-(methylsulfonyl)-4′-[2-methyl-4-(trifluoromethyl)-1H-imidazol-1-yl]-5′-(5-{4-[(trifluoromethyl)oxy]phenyl)-1H-1,2,3-triazol-1-yl)biphenyl-4-yl]methanol] | 106 nM | 77%
14 | Cc1nc(C(F)(F)F)cn1-c1ccc(-c2cccc(S(C)(=O)=O)c2)cc1-c1ccnn1-c1ccc(Cl)nc1 [Example 296, 2-chloro-5-(5-(4-(2-methyl-4-(trifluoromethyl)-1H-imidazol-1-yl)-3′-(methylsulfonyl)biphenyl-3-yl)-1H-pyrazol-1-yl)pyridine] | 572 nM | 75%

Other lines, results leading:

Row | EC50 | Emax | Compound
15 | 67 nM | 48% | Cc1nc(-c2cc(-c3cc(F)c(CO)c(S(C)(=O)=O)c3)ccc2-n2cc(C(F)(F)F)nc2C)c(-c2ccc(SC(F)(F)F)cc2)o1 [Example 543]
16 | 143 nM | 79% | Cc1nc(C(F)(F)F)cn1-c1ccc(-c2cc(F)c(CO)c(S(C)(=O)=O)c2)cc1-c1nc(C(F)(F)F)cn1-c1ccc2c(c1)OC(F)(F)O2 [Example 638, (3′-(1-(2,2-difluorobenzo[d][1,3]dioxol-5-yl)-4-(trifluoromethyl)-1H-imidazol-2-yl)-3-fluoro-4′-(2-methyl-4-(trifluoromethyl)-1H-imidazol-1-yl)-5-(methylsulfonyl)biphenyl-4-yl)methanol]
17 | 107 nM | 49% | CCC(F)(F)c1cn(-c2ccc(-c3cc(F)c(CO)c(S(C)(=O)=O)c3)cc2-c2nc(C)oc2-c2ccc(OC(F)(F)F)cc2)c(C)n1 [Example 518, (4′-(4-(1,1-difluoropropyl)-2-methyl-1H-imidazol-1-yl)-3-fluoro-3′-(2-methyl-5-(4-(trifluoromethoxy)phenyl)oxazol-4-yl)-5-(methylsulfonyl)-[1,1′-biphenyl]-4-yl)methanol]
18 | 552 nM | 68% | Cc1nc(-c2cc(-c3cc(F)c(CO)c(S(C)(=O)=O)c3)ccc2-n2cc(C(F)(F)F)nc2C)c(-c2ccc(C(F)(F)F)nc2)o1 [Example 568, (3-fluoro-4′-(2-methyl-4-(trifluoromethyl)-1H-imidazol-1-yl)-3′-(2-methyl-5-(6-(trifluoromethyl)pyridin-3-yl)oxazol-4-yl)-5-(methylsulfonyl)-[1,1′-biphenyl]-4-yl)methanol]
19 | 111 nM | 93% | Cc1nc(-c2cc(-c3cc(F)c(CO)c(S(C)(=O)=O)c3)ccc2-n2cc(C(F)(F)F)nc2C)c(-c2ccc(Cl)nc2Cl)o1 [Example 567, (3′-(5-(2,6-dichloropyridin-3-yl)-2-methyloxazol-4-yl)-3-fluoro-4′-(2-methyl-4-(trifluoromethyl)-1H-imidazol-1-yl)-5-(methylsulfonyl)-[1,1′-biphenyl]-4-yl)methanol]
20 | 422 nM | 74% | Cc1nc(C(F)(F)F)cn1-c1ccc(-c2cccc(S(C)(=O)=O)c2)cc1-c1nc(CCO)oc1-c1ccc2c(c1)OC(F)(F)O2 [Example 531]
21 | 47 nM | 90% | Cc1nc(-c2cc(-c3cc(F)c(CO)c(S(C)(=O)=O)c3)ccc2-n2cc(C(F)(F)F)nc2C)c(-c2ccc3c(c2)OC(F)(F)O3)o1 [Example 494, (3′-(5-(2,2-difluorobenzo[d][1,3]dioxol-5-yl)-2-methyloxazol-4-yl)-3-fluoro-4′-(2-methyl-4-(trifluoromethyl)-1H-imidazol-1-yl)-5-(methylsulfonyl)biphenyl-4-yl)methanol]
